For this experiment, the system named is rat aorta. The experiment can be described thus: inhibition of calcium-induced contraction (change in tension) of spirally cut strips of rat aorta in K+ 45 mM saline. The class given is cell-based. As to conditions: 0.75 h, 45 millimolar potassium, 2 millimolar calcium, 45 minutes, read-out: IC50 (molar concentration required to reduce the response by 50%). On the procedure: The ability of the compounds to inhibit the movement of calcium into the cell is shown by their effectiveness in reducing the response of isolated heart tissue to an increase in calcium ion concentration in vitro. The test is performed by mounting spirally cut strips of rat aorta with one end fixed and the other attached to a force transducer. The tissue is immersed in a bath of physiological saline solution containing potassium ions at a concentration of 45 millimolar and no calcium. Calcium chloride is added to the bath with a pipette to give a final calcium ion concentration of 2 millimolar. The change in tension caused by the resulting contraction of the tissue is noted. The bath is drained and replaced with fresh saline solution and, after 45 minutes, the test is repeated with the particular compound under test present in the saline solution. The concentration of compound required to reduce the response by 50% (IC50) is recorded.
The molar concentrations of the compounds required to reduce the response by 50% in the test specified on pages 16-17 are given below (1M=1 gm.Mole/liter).
`CCOC(=O)C1=C(COCCNc2nc(C(=O)NC)cs2)NC(C)=C(C(=O)OC)C1c1ccccc1Cl` (centres unmarked) [Example 77, 4-(2-Chlorophenyl)-3-ethoxycarbonyl-5-methoxycarbonyl-6-methyl-2-[2-(4-[N-methylcarbamoyl]-thiazol-2-ylamino)ethoxymethyl]-1,4-dihydropyridine]: the IC50 turned out to be 5.37 nM.

In the case of `CCOC(=O)C1=C(COCCNC2=NCCN2)NC(C)=C(C(=O)OC)C1c1ccccc1Cl` (centres unmarked) [Example 21], the IC50 worked out at 100 nM.

Consider `CCOC(=O)C1=C(COCCNC2=NC(C)(C)C(=O)N2)NC(C)=C(C(=O)OC)C1c1cccc(Cl)c1Cl` (centres unmarked) [Example 38], for which the IC50 was found to be 25.1 nM. Under `CCOC(=O)C1=C(COCCNc2nc(C(=O)OCC)cs2)NC(C)=C(C(=O)OC)C1c1ccccc1Cl` (centres unmarked) [Example 73] stands 4.4 nM; under `CCOC(=O)C1=C(COCCNc2cc(N3CCCCC3)ncn2)NC(C)=C(C(=O)OC)C1c1cccc(Cl)c1Cl` (centres unmarked) [Example 82], 4.07 nM; under `CCOC(=O)C1=C(COCCNc2ccc(S(=O)(=O)N(C)C)cn2)NC(C)=C(C(=O)OC)C1c1cccc(Cl)c1Cl` (centres unmarked) [Example 47], 1.25 nM. Under `CCOC(=O)C1=C(COCCNc2ncc(O)c(C)n2)NC(C)=C(C(=O)OC)C1c1cccc(Cl)c1Cl` (centres unmarked) [Example 91A, 4-(2,3-dichlorophenyl)-3-ethoxycarbonyl-2-[2-(5-hydroxy-4-methylpyrimidin-2-ylamino)ethoxymethyl]-5-methoxycarbonyl-6-methyl-1,4-dihydropyridine] stands 1 nM. In the case of `CCOC(=O)C1=C(COCCNC2=NCC(=O)N2)NC(C)=C(C(=O)OC)C1c1ccccc1Cl` (centres unmarked) [Example 9], the IC50 stood at 12.6 nM. With `CCOC(=O)C1=C(COCCNc2cnccn2)NC(C)=C(C(=O)OC)C1c1cccc(Cl)c1Cl` (centres unmarked) [Example 89, 4-(2,3-Dichlorophenyl)-3-ethoxycarbonyl-5-methoxycarbonyl-6-methyl-2-[2-(pyrazin-2-ylamino)ethoxymethyl]-1,4-dihydropyridine], the IC50 amounted to 0.501 nM. Turning to `CCOC(=O)C1=C(COCCNc2nccnc2NC)NC(C)=C(C(=O)OC)C1c1cccc(Cl)c1Cl` (centres unmarked) [Example 84], the IC50 is 5.01 nM.

Take `CCOC(=O)C1=C(COCCNc2nc(NC(=O)NC)n(C)n2)NC(C)=C(C(=O)OC)C1c1ccccc1Cl` (centres unmarked) [Example 79, hydrate]: the IC50 is 6.6 nM. `CCOC(=O)C1=C(COCCNc2nc(C)cc(=O)[nH]2)NC(C)=C(C(=O)OC)C1c1cccc(C(F)(F)F)c1Cl` (centres unmarked) [Example 61]: the IC50 was 2.24 nM. Under `CCOC(=O)C1=C(COCCNc2nc(N)n(C)n2)NC(C)=C(C(=O)OC)C1c1ccccc1Cl` (centres unmarked) [Example 4] stands 8.12 nM. In the case of `CCOC(=O)C1=C(COCCNc2nccc(C#N)n2)NC(C)=C(C(=O)OC)C1c1ccccc1Cl` (centres unmarked) [Example 28], the IC50 amounted to 13.1 nM. `CCOC(=O)C1=C(COCCNc2ncnc3[nH]cnc23)NC(C)=C(C(=O)OC)C1c1ccccc1Cl` (centres unmarked) [Example 16]: the IC50 was determined as 100 nM.

In the case of `CCOC(=O)C1=C(COCCNc2cc[nH]c(=O)n2)NC(C)=C(C(=O)OC)C1c1cccc(C(F)(F)F)c1Cl` (centres unmarked) [Example 62], the IC50 is 1.35 nM. Regarding `CCOC(=O)C1=C(COCCNc2ccnc(N)n2)NC(C)=C(C(=O)OC)C1c1cccc(Cl)c1Cl` (centres unmarked) [Example 40], the IC50 came to 2.23 nM.

For the compound `CCOC(=O)C1=C(COCCNC2=NCCC2)NC(C)=C(C(=O)OC)C1c1ccccc1Cl` (centres unmarked) [Example 20], the IC50 is 100 nM.

In the case of `CCOC(=O)C1=C(COCCNc2n[nH]c(O)n2)NC(C)=C(C(=O)OC)C1c1cccc(Cl)c1Cl` (centres unmarked) [Example 90B, 4-(2,3-Dichlorophenyl)-3-ethoxycarbonyl-2-[2-(5-hydroxy-1H-1,2,4-triazol-3-ylamino)ethoxymethyl]-5-methoxycarbonyl-6-methyl-1,4-dihydropyridine hydrate], the IC50 came to 10 nM.

Take `CCOC(=O)C1=C(COCCNC2=NCC(=O)N2)NC(C)=C(C(=O)OC)C1c1cccc(Cl)c1Cl` (centres unmarked) [Example 37]: the IC50 was 10 nM. `CCOC(=O)C1=C(COCCNc2cc(N3CCCCC3)ncn2)NC(C)=C(C(=O)OC)C1c1ccccc1Cl` (centres unmarked) [Example 85]: the IC50 was 5.01 nM.

Turning to `CCOC(=O)C1=C(COCCNc2cc(Cl)ncn2)NC(C)=C(C(=O)OC)C1c1cccc(Cl)c1Cl` (centres unmarked) [Example 53], the IC50 was found to be 3160 nM.

With `CCOC(=O)C1=C(COCCNc2n[s+]([O-])nc2OC)NC(C)=C(C(=O)OC)C1c1cccc(C(F)(F)F)c1Cl` (centres unmarked) [Example 66], the IC50 is 2.24 nM.

For the compound `CCOC(=O)C1=C(COCCNc2noc(=O)[nH]2)NC(C)=C(C(=O)OC)C1c1cccc(Cl)c1Cl` (centres unmarked) [Example 78, 2-[2-(4,5-Dihydro-5-oxo-1,2,4-oxadiazol-3-ylamino)ethoxymethyl]-4-(2,3-dichlorophenyl)-3-ethoxycarbonyl-5-methoxycarbonyl-6-methyl-1,4-dihydropyridinemonohydrate], the IC50 worked out at 2.29 nM.

Take `CCOC(=O)C1=C(COCCNc2cc(NC)ncn2)NC(C)=C(C(=O)OC)C1c1cccc(Cl)c1Cl` (centres unmarked) [Example 83]: the IC50 was determined as 3.16 nM.

Regarding `CCOC(=O)C1=C(COCCNc2cc(=O)[nH]cn2)NC(C)=C(C(=O)OC)C1c1cccc(C(F)(F)F)c1Cl` (centres unmarked) [Example 60], the IC50 amounted to 44.7 nM. Under `CCOC(=O)C1=C(COCCNc2cc(=O)[nH]cn2)NC(C)=C(C(=O)OC)C1c1cccc(Cl)c1Cl` (centres unmarked) [Example 41] stands 0.776 nM; under `CCOC(=O)C1=C(COCCNc2nnc(N)[nH]2)NC(C)=C(C(=O)OC)C1c1cccc(Cl)c1Cl` (centres unmarked) [Example 3B], 6.02 nM. Under `CCOC(=O)C1=C(COCCNc2ccc(C(N)=O)cn2)NC(C)=C(C(=O)OC)C1c1ccccc1Cl` (centres unmarked) [Example 22] stands 18.2 nM. For `CCOC(=O)C1=C(COCCNc2nccc(C(N)=O)n2)NC(C)=C(C(=O)OC)C1c1ccccc1Cl` (centres unmarked) [Example 29], the IC50 turned out to be 18.1 nM.

Turning to `CCOC(=O)C1=C(COCCNc2nccnc2Cl)NC(C)=C(C(=O)OC)C1c1ccccc1Cl` (centres unmarked) [Example 32], the IC50 is 15.8 nM. Consider `CCOC(=O)C1=C(COCCNc2nccnc2N2CCOCC2)NC(C)=C(C(=O)OC)C1c1ccccc1Cl` (centres unmarked) [Example 87], for which the IC50 stood at 100 nM. Under `CCOC(=O)C1=C(COCCNc2nc3ccccc3s2)NC(C)=C(C(=O)OC)C1c1ccccc1Cl` (centres unmarked) [Example 19] stands 10 nM; under `CCOC(=O)C1=C(COCCNc2cncc(Cl)n2)NC(C)=C(C(=O)OC)C1c1ccccc1Cl` (centres unmarked) [Example 33], 6.3 nM.

Consider `CCOC(=O)C1=C(COCCNC2=NCCS2)NC(C)=C(C(=O)OC)C1c1ccccc1Cl` (centres unmarked) [Example 70, 4-(2-Chlorophenyl)-3-ethoxycarbonyl-5-methoxycarbonyl-6-methyl-2-[2-(2-thiazolin-2-ylamino)ethoxymethyl]-1,4-dihydropyridine], for which the IC50 came out at 9.33 nM.

As for `CCOC(=O)C1=C(COCCNc2cc(=O)n(C)c(=O)n2C)NC(C)=C(C(=O)OC)C1c1ccccc1Cl` (centres unmarked) [Example 15], the IC50 was determined as 50.1 nM. Under `CCOC(=O)C1=C(COCCNc2nccc(=O)[nH]2)NC(C)=C(C(=O)OC)C1c1cccc(C(F)(F)F)c1Cl` (centres unmarked) [Example 59] stands 3.72 nM; under `CCOC(=O)C1=C(COCCNc2cc(N3CCOCC3)ncn2)NC(C)=C(C(=O)OC)C1c1cccc(Cl)c1Cl` (centres unmarked) [Example 80, 4-(2,3-Dichlorophenyl)-3-ethoxycarbonyl-5-methoxycarbonyl-6-methyl-[2-(6-morpholinopyrimidin-4-ylamino)ethoxymethyl]-1,4-dihydropyridine], 1.34 nM.

The values above are taken from patent publication US4572908A, “Dihydropyridines” (Pfizer Inc., priority 1982, dated 1986).
